Several values for one entry are separate records, joined by “and”; a condition that tells them apart may be missing. Identical values can stand only once. Activity calls are given as the source filed them. The calls are words filed in the database; no cut-off is given here.
What was measured:
[1] = system: dengue virus type 2; test: Antiviral activity Dengue virus 2 by cell based assay; type: functional, organism-based
[2] = system: dengue virus type 2; test: Antiviral activity against Dengue virus 2 infected in human Huh-7 cells assessed as clearance of viral RNA at 10 uM; type: functional, organism-based
[3] = system: dengue virus type 2; test: Antiviral activity against Dengue virus 2 infected in human Huh-7 cells assessed as inhibition of plaque formation relative to control; type: functional
[4] = system: dengue virus type 2; test: Antiviral activity Dengue virus 2 D2Y10 by cell based assay; type: functional, organism-based
[5] = system: dengue virus type 2; test: Antiviral activity against Dengue virus 2 infected in human Huh-7 cells assessed as clearance of viral RNA relative to control; type: functional; design: concentration or dose not given beside the values
[6] = system: Zika virus; test: Antiviral activity Zika virus by cell based assay; type: functional, organism-based
[7] = system: dengue virus type 2; test: Antiviral activity against Dengue virus 2 D2Y10 infected in human THP-1 cells assessed as inhibition of secondary antibody dependent enhancement-driven infection relative to control; type: functional
[8] = system: dengue virus type 3; test: Antiviral activity Dengue virus 3 by cell based assay; type: functional, organism-based
[9] = system: dengue virus type 4; test: Antiviral activity Dengue virus 4 by cell based assay; type: functional, organism-based
[10] = system: dengue virus type 1; test: Antiviral activity Dengue virus 1 by cell based assay; type: functional, organism-based
[11] = system: dengue virus type 2; test: Antiviral activity against Dengue virus 2 infected in human Huh-7 cells assessed as reduction in plaque reduction relative to control; type: functional; design: scale not given: the % may be the effect or the level left
[12] = system: dengue virus type 2; test: Antiviral activity against Dengue virus 2 infected in human Huh-7 cells assessed as clearance of viral RNA at 100 uM; type: functional, organism-based

Compound: N/C(=N\O)c1cccc(NC(=O)c2cn(CCn3cc(Br)cn3)c3ccc(-c4cccc(/C(N)=N/O)c4)cc23)c1
- EC50 [1]: 1830 nM
- Activity [2]: inactive

Compound: N/C(=N\O)c1ccc(CN2CCc3cn(Cc4ccc(Br)cc4)c4cc(-c5ccc(/C(N)=N/O)s5)cc(c34)C2=O)cc1
- inhibition (INH) [3]: 100%
- EC50 [1]: 610 nM
- EC50 [4]: 330 nM
- Activity [5]: >95%
- EC50 [6]: 1420 nM
- inhibition (INH) [7]: 60%
- EC50 [8]: 160 nM
- EC50 [9]: 2250 nM
- EC50 [10]: 790 nM

Compound: C#C[C@@]1(O)[C@H](O)[C@@H](CO)O[C@H]1n1ccc2c(N)ncnc21
- inhibition (INH) [3]: 100%
- EC50 [1]: 640 nM
- EC50 [4]: 780 nM
- EC50 [6]: 120 nM
- inhibition (INH) [7]: 100%
- EC50 [8]: 870 nM
- EC50 [9]: 110 nM
- EC50 [10]: 860 nM

Compound: N/C(=N\O)c1cccc(-c2cc3c4c(cn(Cc5cccc(Br)c5)c4c2)CCN(Cc2ccc(/C(N)=N/O)s2)C3=O)c1
- Activity [11]: <85%

Compound: N/C(=N\O)c1cccc(NC(=O)c2cn(Cc3cccc(Br)c3)c3ccc(-c4cccc(/C(N)=N/O)c4)cc23)c1
- EC50 [1]: 1800 nM
- Activity [5]: >=95% and >95%

Compound: N/C(=N\O)c1cccc(CNC(=O)c2cn(Cc3cccc(Br)c3)c3cc(-c4cccc(/C(N)=N/O)c4)ccc23)c1
- EC50 [1]: 6900 nM
- Activity [5]: >95%

Compound: N/C(=N\O)c1cccc(-c2ccc3c(C(=O)N4CCN(c5cccc(/C(N)=N/O)c5)CC4)cn(Cc4cccc(Br)c4)c3c2)c1
- Activity [12]: inactive
- EC50 [1]: 1230 nM

Compound: N/C(=N\O)c1cccc(CNC(=O)c2cn(Cc3cccc(Br)c3)c3ccc(-c4cccc(/C(N)=N/O)c4)cc23)c1
- EC50 [1]: 1000 nM
- Activity [5]: >95%

Compound: N/C(=N\O)c1cccc(NC(=O)c2nn(Cc3cccc(Br)c3)cc2NC(=O)c2cccc(/C(N)=N/O)c2)c1
- EC50 [1]: 7020 nM

Compound: N/C(=N\O)c1cccc(NC(=O)c2cn(Cc3ccc(Br)cc3)c3ccc(-c4cccc(/C(N)=N/O)c4)cc23)c1
- EC50 [1]: 4480 nM
- Activity [5]: >95%

Compound: N/C(=N\O)c1ccc(CN2CCc3cn(Cc4ccc(Br)nc4)c4cc(-c5cccc(/C(N)=N/O)c5)cc(c34)C2=O)cc1
- EC50 [1]: 960 nM
- Activity [5]: >95%

Compound: N/C(=N\O)c1cccc(NC(=O)c2nn(Cc3cccc(Br)c3)c3ccc(-c4cccc(/C(N)=N/O)c4)cc23)c1
- EC50 [1]: 2190 nM
- Activity [5]: inactive

Compound: N/C(=N\O)c1cccc(CN2CCc3cn(Cc4cccc(Br)c4)c4cc(-c5cccc(/C(N)=N/O)c5)cc(c34)C2=O)c1
- EC50 [1]: 1350 nM
- Activity [5]: >95%

Compound: N/C(=N\O)c1ccc(CN2CCc3cn(Cc4ccc(Br)cc4)c4cc(-c5cccc(/C(N)=N/O)c5)cc(c34)C2=O)cc1
- inhibition (INH) [3]: 97%
- EC50 [1]: 100 nM
- EC50 [4]: 100 nM
- Activity [5]: >95%
- EC50 [6]: 1760 nM
- inhibition (INH) [7]: 100%
- EC50 [8]: 120 nM
- EC50 [9]: 950 nM
- EC50 [10]: 1260 nM

Compound: N/C(=N\O)c1ccc(CN2CCc3cn(Cc4cccc(Br)c4)c4cc(-c5cccc(/C(N)=N/O)c5)cc(c34)C2=O)cc1
- inhibition (INH) [3]: 95%
- EC50 [1]: 660 nM
- EC50 [4]: 380 nM
- Activity [5]: >95%
- EC50 [6]: 3400 nM
- inhibition (INH) [7]: 100%
- EC50 [8]: 1440 nM
- EC50 [9]: 1240 nM
- EC50 [10]: 1030 nM

Compound: N/C(=N\O)c1cccc(-c2ccc3c(C(=O)N4CCN(c5cccc(/C(N)=N/O)c5)CC4)cn(Cc4ccc(Br)nc4)c3c2)c1
- Activity [12]: inactive
- EC50 [1]: 1000 nM

Compound: N/C(=N\O)c1ccc(CN2CCc3cn(Cc4cccc(Br)c4)c4cc(-c5ccc(/C(N)=N/O)cc5)cc(c34)C2=O)cc1
- Activity [11]: <85%

Compound: N/C(=N\O)c1ccc(CNC(=O)c2cn(Cc3cccc(Br)c3)c3ccc(-c4cccc(/C(N)=N/O)c4)cc23)cc1
- EC50 [1]: 2270 nM
- Activity [5]: >95%

Compound: N/C(=N\O)c1cccc(-c2ccc3c(C(=O)N4CCN(c5cccc(/C(N)=N/O)c5)CC4)cn(Cc4ccc(Br)cc4)c3c2)c1
- Activity [12]: inactive
- EC50 [1]: 1130 nM
